Experimental data as given in patent publication US20070032529A1, “Pyrazole compounds and their use as antidiabetes agents” (Japan Tobacco Inc., priority 2005, published 2007).

What follows are compounds tested against T1, recombinant human liver glycogen phosphorylase (Homo sapiens, UniProt P06737) (assay: Measuring liver glycogen phosphorylase activity (forward reaction system, NADPH absorbance at 340 nm)). Conditions: compound concentration 100 nmol (in parentheses); read-out: inhibition rate (%) at a certain concentration.
T1 construct: made in house; host or cells: Sf9 insect cells (crude homogenate, diluted, used as the enzyme solution)
T1 sequence (P06737 1-847): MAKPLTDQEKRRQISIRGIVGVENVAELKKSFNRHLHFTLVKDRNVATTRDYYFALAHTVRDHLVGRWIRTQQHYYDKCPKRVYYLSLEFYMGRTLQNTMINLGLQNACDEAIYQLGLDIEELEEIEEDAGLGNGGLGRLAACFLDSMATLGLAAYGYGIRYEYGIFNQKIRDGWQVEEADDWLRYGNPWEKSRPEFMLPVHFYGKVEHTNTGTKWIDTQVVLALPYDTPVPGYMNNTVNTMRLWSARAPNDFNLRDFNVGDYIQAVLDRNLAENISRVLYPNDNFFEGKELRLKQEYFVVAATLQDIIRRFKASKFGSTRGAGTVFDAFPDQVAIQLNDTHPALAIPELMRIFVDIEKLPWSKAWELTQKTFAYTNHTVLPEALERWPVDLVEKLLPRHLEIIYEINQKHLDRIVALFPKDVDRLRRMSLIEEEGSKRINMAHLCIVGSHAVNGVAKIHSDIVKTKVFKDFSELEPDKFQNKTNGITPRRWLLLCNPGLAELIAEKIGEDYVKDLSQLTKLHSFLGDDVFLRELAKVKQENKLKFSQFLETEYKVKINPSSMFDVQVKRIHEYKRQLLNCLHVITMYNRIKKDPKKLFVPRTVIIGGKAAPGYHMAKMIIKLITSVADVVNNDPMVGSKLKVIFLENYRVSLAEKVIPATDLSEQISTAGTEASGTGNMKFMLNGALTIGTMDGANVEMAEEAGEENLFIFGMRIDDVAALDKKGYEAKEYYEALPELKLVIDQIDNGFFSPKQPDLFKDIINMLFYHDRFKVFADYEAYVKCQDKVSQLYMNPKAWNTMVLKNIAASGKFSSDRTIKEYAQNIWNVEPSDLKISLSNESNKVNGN
Type: biochemical
Description: [Pharmacological Test] 1. Exemplary Test (1) Method for Measuring Liver Glycogen Phosphorylase Activity
The measurement of glycogen phosphorylase activity was carried out by a method using the forward reaction system.
The measurement of glycogen phosphorylase activity using the forward reaction system was carried out as follows. Glucose-1-phosphate prepared from glycogen by glycogen phosphorylase was converted into glucono-δ-lactone 6-phosphate through transphosphorylation and dehydrogenation using phosphoglucomutase and glucose-6-phosphate dehydrogenase (G6PDH). NADPH generated from NADP during the dehydrogenation by G6PDH was detected.
A homogenate of the Sf9 cells which expressed exogenously recombinant human liver glycogen phosphorylase was diluted with 100 mmol/LBES buffer solution (pH 6.8, containing 2 mmol/L EDTA) and the dilution was used as the enzyme solution of human liver glycogen phosphorylase. As the substrate, a phosphate buffer (containing 16 mmol/L KH2PO4, 24 mmol/L Na2HPO4) was used. A mixture of 8 U/mL phosphoglucomutase and 60 U/mL G6PDH was prepared in BES buffer solution. Buffer solution (containing 1.4 mmol/L NADP, 30 mmol/L MgCl2, 8 μmol/L glucose-1,6-diphosphate, 8 mg/mL glycogen, 40 mmol/LBES, 0.8 mmol/L EDTA) for reaction and a glucose solution (containing 75 mmol/L glucose, 100 mmol/LBES, 2 mmol/L EDTA) were prepared individually. The test compound was dissolved in 1% DMSO solution.
The enzymatic reaction was begun by adding 20 μL of the recombinant human liver glycogen phosphorylase solution and 20 μL of the mixture of phosphoglucomutase and G6PDH to the mixture of 20 μL of the glucose solution, 20 μL of the substrate, 100 μL of the buffer solution for reaction and 20 μL of the test compound solution. As control, 1% DMSO solution was added instead of the test compound. The mixture without the substrate was used as blank. The absorbance at 340 nm was measured immediately after the reaction started. The absorbance at 340 nm was measured again after reacting at room temperature for 75 minutes. The enzymatic activity is a value obtained by subtracting the blank variation in absorbance over 75 minutes from the variation in absorbance over 75 minutes.
The inhibition rate (%) of the test compound was calculated by the expression “(1-enzymatic activity of test compound/enzymatic activity of control)×100.”
A linear equation was determined from the two concentration points with the 50% inhibition rate therebetween, and the IC50 value was calculated from the concentration at the intersection of the line with the 50% inhibition rate.
“IC50” in the tables indicates the above-described enzyme inhibitory activity with respect to liver glycogen phosphorylase, and the activity to inhibit liver glycogen phosphorylase was represented as ++ when the IC50 value (nmol/L) was less than 100 nmol/L, as + when the IC50 value was between 100 nmol/L and 300 nmol/L. When IC50 is 300 nmol/L or more, an inhibition rate (%) at a certain concentration of the compound (I) of the present invention is shown in Tables. For example, when the inhibition rate is 20% at a concentration of 300 nmol, the rate is described as 20% (300).

| inhibition at 0.1 µM [%] | Compound |
| --- | --- |
| 22.9 | O=C(NCCc1ccccn1)c1cc(NC(=O)c2cc(F)c(F)cc2Cl)[nH]n1 [Example 1-139] |

Same assay, conditions: compound concentration 300 nmol (in parentheses); read-out: inhibition rate (%) at a certain concentration

| inhibition at 0.3 µM [%] | Compound |
| --- | --- |
| 17 | O=C(Nc1cc(C(=O)N(CCCCO)Cc2ccccc2)n[nH]1)c1cc(F)c(F)cc1Cl [Example 1-86] |
| 11.7 | O=C(Nc1ccccc1N1CCOCC1)c1cc(NC(=O)c2cc(F)c(F)cc2Cl)[nH]n1 [Example 1-92] |
| 36.5 | COCCN(CCOC)C(=O)c1cc(NC(=O)c2cc(F)c(F)cc2Cl)[nH]n1 [Example 1-94] |
| 21.6 | CCC(CC)N(CCOC)C(=O)c1cc(NC(=O)c2cc(F)c(F)cc2Cl)[nH]n1 [Example 1-103] |
| 32.3 | CCCCN(C(=O)c1cc(NC(=O)c2cc(F)c(F)cc2Cl)[nH]n1)C1CCC(C(=O)OC(C)(C)C)CC1 (centres unmarked) [Example 1-104] |
| 45.3 | COCCN(Cc1ccccc1)C(=O)c1cc(NC(=O)c2cc(F)c(F)cc2Cl)[nH]n1 [Example 1-108] |
| 33.3 | CCCCN(C(=O)c1cc(NC(=O)c2cc(F)c(F)cc2Cl)[nH]n1)C1CCNCC1 [Example 1-109] |
| 49.9 | CCCCN(C(=O)c1cc(NC(=O)c2cc(F)c(F)cc2Cl)[nH]n1)C1CCN(C(=O)C(=O)OCC)CC1 [Example 1-112] |
| 38.9 | CCCCN(C(=O)c1cc(NC(=O)c2cc(F)c(F)cc2Cl)[nH]n1)C1CCS(=O)(=O)CC1 [Example 1-114] |
| 39.7 | CCCCN(C(=O)c1cc(NC(=O)c2cc(F)c(F)cc2Cl)[nH]n1)C1CC[S+]([O-])CC1 (centres unmarked) [Example 1-115] |

Same assay, conditions: enzyme inhibitory activity with respect to liver glycogen phosphorylase; class symbols

| IC50 [nM] | Compound |
| --- | --- |
| < 100 | CCCCN(C(=O)c1cc(NC(=O)c2cc(F)c(F)cc2Cl)[nH]n1)C1CCCCC1 [Example 1-89] |
| < 100 | CCCCN(CCCC)C(=O)c1cc(NC(=O)c2cc(F)c(F)cc2Cl)[nH]n1 [Example 1-93] |
| < 100 | COCCN(C(=O)c1cc(NC(=O)c2cc(F)c(F)cc2Cl)[nH]n1)C1CCOCC1 [Example 1-97] |
| < 100 | CC(C)OCCN(C(=O)c1cc(NC(=O)c2cc(F)c(F)cc2Cl)[nH]n1)C1CCCCC1 [Example 1-101] |
| < 100 | CCOCCCN(C(=O)c1cc(NC(=O)c2cc(F)c(F)cc2Cl)[nH]n1)C1CCCCC1 [Example 1-102] |
| 100 to 300 | CCCCN(C(=O)c1cc(NC(=O)c2cc(F)c(F)cc2Cl)[nH]n1)C1CCSCC1 [Example 1-105] |
| 100 to 300 | COCCNC(=O)c1cc(NC(=O)c2cc(F)c(F)cc2Cl)[nH]n1 [Example 1-106] |
| < 100 | CCCCN(C(=O)c1cc(NC(=O)c2cc(F)c(F)cc2Cl)[nH]n1)C1CCN(C(C)=O)CC1 [Example 1-110] |
| 100 to 300 | CCCCN(C(=O)c1cc(NC(=O)c2cc(F)c(F)cc2Cl)[nH]n1)C1CCN(S(C)(=O)=O)CC1 [Example 1-111] |
| < 100 | CCN(CC)C(=O)c1ccc(CNC(=O)c2cc(NC(=O)c3cc(F)c(F)cc3Cl)[nH]n2)cc1 [Example 1-118] |
| 100 to 300 | CCN(CC)C(=O)c1cccc(CNC(=O)c2cc(NC(=O)c3cc(F)c(F)cc3Cl)[nH]n2)c1 [Example 1-119] |
| < 100 | CCNC(=O)c1ccc(CNC(=O)c2cc(NC(=O)c3cc(F)c(F)cc3Cl)[nH]n2)cc1 [Example 1-120] |
| < 100 | CCNC(=O)c1cccc(CNC(=O)c2cc(NC(=O)c3cc(F)c(F)cc3Cl)[nH]n2)c1 [Example 1-121] |
| < 100 | NC(=O)c1ccc(CNC(=O)c2cc(NC(=O)c3cc(F)c(F)cc3Cl)[nH]n2)cc1 [Example 1-122] |
| < 100 | CCCN(C(=O)c1cc(NC(=O)c2cc(F)c(F)cc2Cl)[nH]n1)C1CCN(C(=O)CC(=O)O)CC1 [Example 1-124] |
| < 100 | CCCN(C(=O)c1cc(NC(=O)c2cc(F)c(F)cc2Cl)[nH]n1)C1CCN(C(=O)CCC(=O)O)CC1 [Example 1-125] |
| < 100 | O=C(O)CCN(Cc1ccccc1)C(=O)c1cc(NC(=O)c2cc(F)c(F)cc2Cl)[nH]n1 [Example 1-131] |
| < 100 | CCOC(=O)CCN(Cc1ccccc1)C(=O)c1cc(NC(=O)c2cc(F)c(F)cc2Cl)[nH]n1 [Example 1-132] |
